# Patent US20040234981A1, “Method of determining dna base sequence” (priority 2001, published 2004)
# Values joined by “and” are separate entries in the source; they are usually repeats but may differ in a detail not shown here. Equal values may be shown once.
# Assays:
# Type in all cases: biochemical
# [1] = tested on: 3′-dATP; assay: Test (1): 3′-dATP added during in vitro transcription, amount of RNA synthesized (SYBER Green II gel image); settings: 3′-dATP concentration 0.024 mM, wild form of T7 RNA polymerase taken as 1, inverse of RNA synthesis level
# Method: (§1) The ability to incorporate 3′-dATP of the Δ type enzyme of purified T7 RNA polymerase was compared to that of the wild type and F644Y mutation.
# In this method, 3′-dATP was added during an in vitro transcription reaction and the synthesis level was determined by comparison with synthesis impairment. This will be described in greater detail. The template employed was pBluescriptII (Stratagene) pretreated with the restriction enzyme ScaI (made by Nippon Gene). The reaction conditions were: 40 mM Tris-HCl, pH 8.0, 25 mM NaCl, 8 mM MgCl2, 2 mM spermidine-(HCl)3, and 5 mM DTT. The concentration of nucleotides ATP, CTP, GTP, and UTP was 0.5 mM. Of these, ATP was replaced with 3′-dATP (Sigma) in ranges of 0.006 mM, 0.008 mM, 0.012 mM, and 0.024 mM. The above purified enzymes were added to 20 μL of this solution and the reaction was conducted for 30 to 60 min at 37° C. At the conclusion of the reaction, 4 μL of 5× gel loading buffer was added (15% Ficoll, 0.1% BPB, 0.1% XC, 0.5% SDS, and 0.1 M EDTA). The entire solution was then subjected to electrophoresis in a 1% modified agarose gel containing formaldehyde. At the conclusion of electrophoresis, 10,000-fold dilution was conducted with SYBER Green II (made by Molecular Probe Co.) and dying was conducted for 20 to 40 min according to a protocol of addition to the product. A Fluoro S Multiimager (BiORad Co.) was then employed to irradiate ultraviolet radiation and pick up the fluorescent image. Multianalyst, an attached image analyzing software package, was used to determine the amount of RNA that had been synthesized from the image picked up. The various values of the results were compared. An increase in ability to incorporate 3′-dATP should result in a drop in the synthesis level. Accordingly, a comparison was made with a control, and the inverse thereof was employed as indicator of how readily 3′-dATP was incorporated.
# [2] = tested on: fluorescent-labeled 3′-deoxynucleotide; assay: Ability to incorporate fluorescent-labeled 3′-deoxynucleotide, fluorescent signal intensity on ABI 377 XL Sequencer
# Method: A comparison was conducted of the ability to incorporate florescent-labeled 3′-deoxynucleotide of Δ-type enzyme of purified T7 RNA polymerase.
# This method was conducted in accordance with the method of Sasaki et al. (Sasaki, N., et al. Gene, 222(1): 17-24 (1998)). In greater detail, pBluescriptII DNA was employed as template. A solution obtained by mixing Bodipy(R6G)-3′dATP, Bodipy(FL)-3′dGTP, Bodipy(581/591)-3′dCTP, Bodipy(564/570)-3′dUTP, ATP, GTP, CTP, and UTP in prescribed proportions was employed to conduct reactions differing only with regard to the T7 RNA polymerase employed. The enzymes employed were 100 units of T7 RNA polymerase (wild type) and T7 RNA polymerase F644Y; and 50 units of T7 RNA polymerase F644Y/Δ1. The reaction product was subjected to electrophoresis with an ABI 377 XL Sequencer. The average value of the fluorescent signal intensity was compared for each nucleotide.
# Column (2) is a conversion of the value of (1) per unit of enzyme. Numbers shown in parentheses denote values relative to a value of “1” for the signal intensity of wild enzyme. […] Since the ABI 377 XL Sequencer is not a device for quantitative analysis, and operations is conducted on an extremely small amount of samples, large errors are to be expected.
# [3] = tested on: 3′-dATP; assay: Test (2): 3′-dATP added during in vitro transcription with Biotin-labeled CTP, chemoluminescent signal detection; settings: 3′-dATP concentration 0.00125 mM, wild form taken as 1, average of three runs
# Method: as §1
# In this method, 3′-dATP was added during an in vitro transcription reaction and the synthesis level was determined by comparison with synthesis impairment. This will be described in greater detail. The template employed was pBluescriptII (Stratagene) pretreated with the restriction enzyme ScaI (made by Nippon Gene). The reaction conditions were: 40 mM Tris-HCl, pH 8.0, 25 mM NaCl, 8 mM MgCl2, 2 mM spermidine-(HCl)3, and 5 mM DTT. The concentration of ribonucleotides rATP, rCTP, rGTP, and rUTP was 0.5 mM. A 0.1 mM quantity of Biotin-labeled CTP was added and 3′-dATP was added in ranges of 0.00125 mM, 0.0025 mM, and 0.005 mM. A 25 U quantity of enzymes purified as set forth above were added to 10 μL of this solution and the reaction was conducted for 60 min at 37° C. At the conclusion of the reaction, 1 μL of 10× gel loading buffer (1 mM EDTA, 1% SDS, 50% glycerol, and 0.05% BPB) was added. The entire solution was then subjected to electrophoresis in a 1% modified formamide gel. At the conclusion of electrophoresis, northern hybridization was conducted, the synthesized product was transcribed onto a nylon membrane, and signal detection was conducted based on a chemoluminescent substrate according to a protocol of anti-SA-AP antibody (made by Oriental Yeast Co., diluted 20,000-fold) and CDP-Star™ (made by Roche Co.). A Fluoro S Multiimager (BioRad Co.) and Multianalyst, an attached image analyzing software package, were then employed to determine the level of the signal detected.
# [4] = relative to a value of 1 for the signal intensity of wild enzyme
Molecule,Relative ability to incorporate 3′-dATP [1],"(1) Average signal intensity U ([2]; Bodipy(564/570)-3′dUTP, 100 units of enzyme (50 units for F644Y/Δ1))","(1) Average signal intensity C ([2]; Bodipy(581/591)-3′dCTP, 100 units of enzyme (50 units for F644Y/Δ1))","(1) Average signal intensity G ([2]; Bodipy(FL)-3′dGTP, 100 units of enzyme (50 units for F644Y/Δ1))","(1) Average signal intensity A ([2]; Bodipy(R6G)-3′dATP, 100 units of enzyme (50 units for F644Y/Δ1))",(2) Signal intensity per unit of enzyme G ([2]; conversion of (1) per unit of enzyme),"Signal intensity per unit of enzyme A, value in parentheses relative to wild enzyme [2, 4]","Signal intensity per unit of enzyme C, value in parentheses relative to wild enzyme [2, 4]","Signal intensity per unit of enzyme G, value in parentheses relative to wild enzyme [2, 4]","Signal intensity per unit of enzyme U, value in parentheses relative to wild enzyme [2, 4]",Relative ability to incorporate 3′-dATP [3],Relative ability to incorporate 3′-dATP ([3]; listed as F644Y/Δ3),Relative ability to incorporate 3′-dATP ([3]; listed as T7 RNA polymerase F644Y/Δ 3)
T7 RNA polymerase (wild type): wild RNA polymerase derived from T7 phage,1.00,120,146,220,67,2.2,(1.0),(1.0),(1.0),(1.0),1.00,–,–
"T7 RNA polymerase F644Y/Δ2: T7 RNA polymerase F644Y deficient in amino acids 172 and 173 and 178 through 180; plasmid pT7RF644Y/Δ2 (protein, UniProt P00573 1-883, looked up, variant F644Y del172-173 del178-180) T7 RNA polymerase: MNTINIAKNDFSDIELAAIPFNTLADHYGERLAREQLALEHESYEMGEARFRKMFERQLKAGEVADNAAAKPLITTLLPKMIARINDWFEEVKAKRGKRPTAFQFLQEIKPEAVAYITIKTTLACLTSADNTTVQAVASAIGRAIEDEARFGRIRDLEAKHFKKNVEEQLNVGHVAFMQVVEADMLSKGLLGGEAWSSWHKEDSIHVGVRCIEMLIESTGMVSLHRQNAGVVGQDSETIELAPEYAEAIATRAGALAGISPMFQPCVVPPKPWTGITGGGYWANGRRPLALVRTHSKKALMRYEDVYMPEVYKAINIAQNTAWKINKKVLAVANVITKWKHCPVEDIPAIEREELPMKPEDIDMNPEALTAWKRAAAAVYRKDKARKSRRISLEFMLEQANKFANHKAIWFPYNMDWRGRVYAVSMFNPQGNDMTKGLLTLAKGKPIGKEGYYWLKIHGANCAGVDKVPFPERIKFIEENHENIMACAKSPLENTWWAEQDSPFCFLAFCFEYAGVQHHGLSYNCSLPLAFDGSCSGIQHFSAMLRDEVGGRAVNLLPSETVQDIYGIVAKKVNEILQADAINGTDNEVVTVTDENTGEISEKVKLGTKALAGQWLAYGVTRSVTKRSVMTLAYGSKEYGFRQQVLEDTIQPAIDSGKGLMFTQPNQAAGYMAKLIWESVSVTVVAAVEAMNWLKSAAKLLAAEVKDKKTGEILRKRCAVHWVTPDGFPVWQEYKKPIQTRLNLMFLGQFRLQPTINTNKDSEIDAHKQESGIAPNFVHSQDGSHLRKTVVWAHEKYGIESFALIHDSFGTIPADAANLFKAVRETMVDTYESCDVLADFYDQFADQLHESQLDKMPALPAKGNLNLRDILESDFAFA",almost the same results,–,–,–,–,–,–,–,–,–,–,–,–
"T7 RNA polymerase F644Y/Δ3: T7 RNA polymerase F644Y with Δ3 deficiency (DEL 178-180) (protein, UniProt P00573 1-883, looked up, variant F644Y del178-180) T7 RNA polymerase: MNTINIAKNDFSDIELAAIPFNTLADHYGERLAREQLALEHESYEMGEARFRKMFERQLKAGEVADNAAAKPLITTLLPKMIARINDWFEEVKAKRGKRPTAFQFLQEIKPEAVAYITIKTTLACLTSADNTTVQAVASAIGRAIEDEARFGRIRDLEAKHFKKNVEEQLNKRVGHVAFMQVVEADMLSKGLLGGEAWSSWHKEDSIHVGVRCIEMLIESTGMVSLHRQNAGVVGQDSETIELAPEYAEAIATRAGALAGISPMFQPCVVPPKPWTGITGGGYWANGRRPLALVRTHSKKALMRYEDVYMPEVYKAINIAQNTAWKINKKVLAVANVITKWKHCPVEDIPAIEREELPMKPEDIDMNPEALTAWKRAAAAVYRKDKARKSRRISLEFMLEQANKFANHKAIWFPYNMDWRGRVYAVSMFNPQGNDMTKGLLTLAKGKPIGKEGYYWLKIHGANCAGVDKVPFPERIKFIEENHENIMACAKSPLENTWWAEQDSPFCFLAFCFEYAGVQHHGLSYNCSLPLAFDGSCSGIQHFSAMLRDEVGGRAVNLLPSETVQDIYGIVAKKVNEILQADAINGTDNEVVTVTDENTGEISEKVKLGTKALAGQWLAYGVTRSVTKRSVMTLAYGSKEYGFRQQVLEDTIQPAIDSGKGLMFTQPNQAAGYMAKLIWESVSVTVVAAVEAMNWLKSAAKLLAAEVKDKKTGEILRKRCAVHWVTPDGFPVWQEYKKPIQTRLNLMFLGQFRLQPTINTNKDSEIDAHKQESGIAPNFVHSQDGSHLRKTVVWAHEKYGIESFALIHDSFGTIPADAANLFKAVRETMVDTYESCDVLADFYDQFADQLHESQLDKMPALPAKGNLNLRDILESDFAFA",–,–,–,–,–,–,–,–,–,–,–,2.00±0.3 and 2.00,2.00 ± 0.3
